According to PubChem BioAssay (NCI):
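Method: 48-hour compound exposure of cells in 96-well plates, five concentrations, linear interpolation of endpoints. At the TGI there is no net growth.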

How the values were obtained:
Experiment in all cases: DTP human tumour cell line panel, 48 h
BT-549 breast = tested on: BT-549 breast
DU-145 prostate = tested on: DU-145 prostate
HS 578T breast = tested on: HS 578T breast
LOX IMVI melanoma = tested on: LOX IMVI melanoma
NCI-H226 lung = tested on: NCI-H226 lung
OVCAR-5 ovarian = tested on: OVCAR-5 ovarian
SNB-19 CNS = tested on: SNB-19 CNS
SNB-75 CNS = tested on: SNB-75 CNS
UACC-257 melanoma = tested on: UACC-257 melanoma
UACC-62 melanoma = tested on: UACC-62 melanoma
MDA-MB-435 = tested on: MDA-MB-435
OVCAR-3 ovarian = tested on: OVCAR-3 ovarian

| SMILES | TGI (BT-549 breast) [µM] | TGI (DU-145 prostate) [µM] | TGI (HS 578T breast) [µM] | TGI (LOX IMVI melanoma) [µM] | TGI (NCI-H226 lung) [µM] | TGI (OVCAR-5 ovarian) [µM] | TGI (SNB-19 CNS) [µM] | TGI (SNB-75 CNS) [µM] | TGI (UACC-257 melanoma) [µM] | TGI (UACC-62 melanoma) [µM] | TGI (MDA-MB-435) [µM] | TGI (OVCAR-3 ovarian) [µM] |
| --- | --- | --- | --- | --- | --- | --- | --- | --- | --- | --- | --- | --- |
| O=C1CCCc2cc3c(cc21)CCC3C(=O)O (stereo not drawn) | > 100 | > 100 | > 100 | > 100 | > 100 | > 100 | > 100 | > 100 | > 100 | > 100 | – | – |
| CC1OC(O[C@H]2CC[C@]3(C)[C@H]4CC=C5[C@@H]6[C@@H](C)[C@H](C)CC[C@]6(C(=O)O)CC[C@@]5(C(=O)O)[C@]4(C)CC[C@H]3C2(C)C)C(O)C(O)C1O (stereo partly drawn) | > 75 | > 75 | > 75 | > 75 | – | > 75 | > 75 | > 75 | > 75 | > 75 | > 75 | > 75 |
| CNC(=O)CCNC(=O)CCC(=O)OC | – | > 100 | – | – | – | > 100 | > 100 | – | – | > 100 | > 100 | > 100 |
| CC1(C)OCC(C2OC(N3O[C@H](CI)C[C@@H]3c3ccccc3)C3OC(C)(C)OC23)O1 (stereo partly drawn) | > 100 | > 100 | > 100 | > 100 | – | > 100 | > 100 | > 100 | > 100 | > 100 | > 100 | > 100 |
| Cc1cc2c(s1)C(=O)c1sccc1C2=O | – | 3.23 | 2.52 | 0.422 | 3.37 | 3.29 | 3.04 | 1.18 | 0.385 | 0.524 | 0.318 | 2.19 |
| COc1ccc2c3ccc4c(c3n(C)c2c1)C(=O)c1ccccc1C4=O | – | – | – | – | > 100 | – | > 100 | > 100 | > 100 | > 100 | – | – |
| O=C1CCCC2=C1CC1=C(CCCC1=O)N2c1cccc2ccccc12 | > 100 | – | > 100 | > 100 | > 100 | > 100 | > 100 | > 100 | – | > 100 | – | > 100 |
| Cc1cc2oc(=O)[nH]c(=S)c2c(C)c1C | – | – | – | > 100 | > 100 | – | > 100 | > 100 | > 100 | > 100 | – | > 100 |
| N#CS/C(Cl)=C(/C(Cl)=C(Cl)Cl)[N+](=O)[O-] | > 100 | > 100 | 61 | 39.8 | > 100 | > 100 | 29.3 | > 100 | > 100 | > 100 | – | 48.9 |
| [N-]=[N+]=NC1C(Br)C(=O)NC(=O)N1[C@H]1C[C@H](O)[C@@H](CO)O1 (stereo partly drawn) | – | – | – | > 100 | – | > 100 | > 100 | > 100 | > 100 | > 100 | – | > 100 |
| C=C[C@H]1CN2CCc3c([nH]c4c([C@H]5CCCN5C)c(O)ccc34)[C@@H]2C[C@@H]1C[C@H]1c2[nH]c3ccccc3c2CCN1C | 3.72 | 3 | 4.59 | 2.4 | – | 3.26 | 3.57 | 2.4 | 3.54 | 3.16 | 2.83 | 3 |
| CC(C)(C)N1NC1C1NN1C(C)(C)C (stereo not drawn) | – | > 100 | > 100 | > 100 | > 100 | > 100 | > 100 | > 100 | > 100 | > 100 | > 100 | > 100 |
| O=C1CCC2SC1CCC2=O | > 100 | > 100 | – | > 100 | > 100 | > 100 | > 100 | > 100 | > 100 | – | > 100 | > 100 |
| CC(c1cccc2ccccc12)/[N+]([O-])=C/c1ccccc1 (stereo not drawn) | – | – | – | > 100 | – | > 100 | > 100 | > 100 | > 100 | – | – | > 100 |
| COc1cc2[nH]c(-c3cccc(N(C)C)c3)cc(=O)c2cc1OC | – | – | – | > 100 | > 25.3 | > 100 | > 100 | – | > 100 | > 100 | – | – |
| COC(=N)C12C(N)=NC(OC)(OC)C1(C#N)C21C(=O)N(c2ccccc2)N=C1C (stereo not drawn) | > 100 | > 100 | – | – | > 100 | > 100 | > 100 | > 100 | > 100 | > 100 | > 100 | > 100 |
| O=C(c1ccncc1)n1nc(-c2ccccc2)c(N=Nc2ccc([N+](=O)[O-])cc2)c1-c1ccccc1 | – | – | – | – | > 100 | – | > 100 | > 100 | > 100 | > 100 | – | > 100 |
| CC(=O)c1ccc2c(c1)oc(=O)n2CCN1CCCCC1 | > 100 | > 100 | > 100 | > 100 | > 100 | > 100 | > 100 | – | > 100 | > 100 | > 100 | > 100 |
| CCC(=O)COc1ccc(NC(NC(=O)C(C(F)(F)F)C(F)(F)F)(C(F)(F)F)C(F)(F)F)cc1 | – | > 100 | > 100 | 74.1 | 47.6 | > 100 | > 100 | 75.3 | > 100 | – | > 100 | > 100 |
| CC1=C(OC2OC(CO)C(O)C(O)C2O)C(=O)C[C@H]2C1=CC[C@@H]1[C@@]2(C)C(=O)C[C@]2(C)[C@@H]([C@@](C)(O)C(=O)CCC(C)(C)O)[C@H](O)C[C@@]12C (stereo partly drawn) | > 100 | > 100 | – | > 100 | > 100 | > 100 | > 100 | > 100 | > 100 | > 100 | > 100 | > 100 |
| COc1ccc(CN(CCc2c[nH]c3ccccc23)Cc2ccc(OC)cc2)cc1 | 11.4 | 32.9 | 63 | – | 2.95 | 9.62 | > 44.4 | 15.1 | 14.3 | 5.6 | 11.7 | 9.25 |
| CCC1(N=[N+]=[N-])C(=O)Nc2cc(C)ccc2C1=O (stereo not drawn) | – | – | – | > 100 | – | > 100 | > 100 | > 100 | > 100 | > 100 | – | > 100 |
